This passage reports IC50 results from patent US12617773B2, “Azetidin-3-ylmethanol derivatives as CCR6 receptor modulators” (Idorsia Pharmaceuticals Ltd, priority 2020, dated 2026).

The target of the test is T1, human CCR6 (Homo sapiens, UniProt P51684).
T1 construct: expressed in transfected cells; host or cells: HEK-293
T1 sequence (P51684 1-374): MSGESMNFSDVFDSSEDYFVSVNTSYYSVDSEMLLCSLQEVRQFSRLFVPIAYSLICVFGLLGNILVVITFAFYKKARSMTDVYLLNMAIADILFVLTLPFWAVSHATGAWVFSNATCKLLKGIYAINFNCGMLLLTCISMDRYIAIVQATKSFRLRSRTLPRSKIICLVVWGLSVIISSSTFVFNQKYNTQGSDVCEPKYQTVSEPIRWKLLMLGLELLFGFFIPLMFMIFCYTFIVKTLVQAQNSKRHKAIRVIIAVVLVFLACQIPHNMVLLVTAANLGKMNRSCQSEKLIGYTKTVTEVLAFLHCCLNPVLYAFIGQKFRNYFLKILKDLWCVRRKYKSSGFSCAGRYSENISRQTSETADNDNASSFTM
Briefly: FLIPR assay (inhibition of CCL20-induced calcium signal). The format is cell-based. The conditions noted are these: HEK-293 cells expressing human CCR6; mean values where determined several times; read-out: FLIPR IC50. As for the experimental part:
FLIPR assay: The bioactivity of compounds is tested in a fluorometric imaging plate reader (FLIPR: Molecular Devices) using engineered HEK-293 cells expressing the human CCR6 (GenBank: AY242126). Frozen cells are plated on Poly-L-Lysine precoated 384-well plates 2 days prior to bioassay in DMEM medium supplemented with 10% FCS and 1% Penicillin-Streptomycin. […] This buffer, but lacking the dye, is also used for washing and compound dilution steps (assay buffer). Cells are washed free of excess dye with a wash-station (Biotek), leaving 40 microliter of assay buffer at the end. Cells were incubated for 15 minutes at room temperature in the dark, before adding compounds. Stock solutions of test compounds are made up at a concentration of 10 mM in DMSO, and serially diluted first in DMSO and then transferred in assay buffer to concentrations required for inhibition dose response curves. After a 45-minute incubation period in assay buffer at room temperature, 10 microliters of each compound dilution are transferred from a compound plate to the plate containing the recombinant cells in the FLIPR instrument according to the manufacturer's instructions. After cells and compounds were preincubated for 30 minutes at room temperature in the dark, 10 microliter agonist CCL20 (Peprotech) at a final concentration of 10 nM is added, again using the FLIPR instrument. Changes in fluorescence are monitored before and after addition of the test compounds and agonist. Emission peak values above base level after CCL20 addition are exported after base line subtraction.
The calculated IC50 values may fluctuate depending on the daily assay performance. Fluctuations of this kind are known to those skilled in the art.
A word on the IC50: it is the midpoint of a concentration-inhibition curve. Consider `CC(C)c1ccc([C@](O)(c2cncc(-c3noc(C(C)(O)CO)n3)c2)C2(C)CN(C)C2)cc1` (some centres unmarked) [Example 494], for which the IC50 came out at 240 nM. Regarding `Cc1cc(C(C)(O)C#Cc2cncc([C@@](O)(c3ccc(C(C)C)cc3)C3(C)CN(C)C3)c2)nc(C)n1` (single isomer, unassigned) [Example 626], the IC50 was found to be 111 nM.

Regarding `CC(=O)N1CCC(c2nc(-c3cncc([C@@](O)(c4ccc(OC5CCC5)cc4)C4(C)CN(C)C4)c3)no2)CC1` [Example 561], the IC50 came to 766 nM.

Regarding `CC(C)c1ccc([C@](O)(c2cncc(C#CC3(O)CN(C(=O)OC(C)(C)C)C3)c2)C2(C)CN(C)C2)cc1` [Example 20], the IC50 was 23 nM.

Turning to `CC(C)C(=O)N1CC(O)(C#Cc2cncc([C@@](O)(c3ccc(C(C)C)cc3)C3(C)CN(C)C3)c2)C1` [Example 46], the concentration for half-maximal inhibition (IC50) was found to be 145 nM.

With `CC(C)c1ccc([C@](O)(c2cncc(-c3noc(C4CC(=O)N(C)C4)n3)c2)C2(C)CN(C)C2)cc1` (single isomer, unassigned) [Example 509], the IC50 is 208 nM. The figure for `CC(C)c1ccc([C@](O)(c2cncc(-c3noc(C4CC5CCC4O5)n3)c2)C2(C)CN(C)C2)cc1` (some centres unmarked) [Example 131] is 60.8 nM. As to `CC(C)c1ccc([C@](O)(c2cncc(N3CC4(CCCC4)CC3=O)c2)C2(C)CN(C)C2)cc1` [Example 211], the 50% inhibitory concentration (IC50) amounted to 50.1 nM. The figure for `CC(C)c1ccc([C@](O)(c2cncc(-c3noc(C4CC(=O)N(C(C)C)C4)n3)c2)C2(C)CN(C)C2)cc1` (single isomer, unassigned) [Example 512] is 61.1 nM. As to `CCc1ccc([C@](O)(c2cncc(-c3noc(C(C)(C)O)n3)c2)C2(C)CN(C)C2)cc1` [Example 569], the IC50 turned out to be 118 nM.

Take `CN1CC(C)(C(O)(c2ccc(OC3CC3)cc2)c2cncc(N3CCCC3)c2)C1` (centres unmarked) [Example 161]: the IC50 came out at 202 nM. The same measure for `CC(C)c1ccc([C@](O)(c2cncc(C3CCN(c4ccccn4)CC3)c2)C2(C)CN(C)C2)cc1` [Example 315, (R)-(1,3-Dimethyl-azetidin-3-yl)-(4-isopropyl-phenyl)-(3′,4′,5′,6′-tetrahydro-2′H-[2,1′; 4′,3″]terpyridin-5″-yl)-methanol]: 23.6 nM; for `CCCc1ccc(C(O)(c2cncc(N3CCCC3)c2)C2(C)CN(C)C2)cc1` (centres unmarked) [Example 150, (1,3-Dimethyl-azetidin-3-yl)-(4-propyl-phenyl)-(5-pyrrolidin-1-yl-pyridin-3-yl)-methanol]: 35.8 nM; for `COc1cc(C(C)(O)C#Cc2cncc([C@@](O)(c3ccc(C(C)C)cc3)C3(C)CN(C)C3)c2)ncn1` (single isomer, unassigned) [Example 620]: 55.3 nM.

With `CN1CC(C)([C@](O)(c2ccc(C3CC3)cc2)c2cncc(-c3nc(C45CC(CO)(C4)C5)no3)c2)C1` [Example 96], the IC50 is 130 nM.

In the case of `Cc1cccc(C(C)(O)CCc2cc([C@@](O)(c3ccc(C(C)C)cc3)C3(C)CN(C)C3)cnn2)n1` (stereo partly drawn) [Example 420, 4-{5-[(R)-(1,3-Dimethyl-azetidin-3-yl)-hydroxy-(4-isopropyl-phenyl)-methyl]-pyridazin-3-yl}-2-(6-methyl-pyridin-2-yl)-butan-2-ol], the IC50 is 277 nM.

On to `CC(=O)N1CCC(C)(C(O)C#Cc2cncc([C@@](O)(c3ccc(C(C)C)cc3)C3(C)CN(C)C3)c2)CC1` (some centres unmarked) [Example 601], for which the IC50 came out at 75.5 nM. On to `CC(C)c1ccc([C@](O)(c2cncc(-c3noc(C4CCN(C(=O)c5ccccc5)CC4)n3)c2)C2(C)CN(C)C2)cc1` [Example 377], for which the IC50 was 39.5 nM. The same measure for `CN1CC(C)([C@](O)(c2ccc(C(C)(C)C)cc2)c2cncc(N3CCCCC3)c2)C1` [Example 188]: 23.4 nM; for `CC(C)c1ccc([C@](O)(c2cncc(-c3noc(CN4CCN(C)C4=O)n3)c2)C2(C)CN(C)C2)cc1` [Example 492]: 267 nM; for `CC(C)c1ccc([C@](O)(c2cnnc(N3Cc4ccccc4C3=O)c2)C2(C)CN(C)C2)cc1` [Example 444]: 33.4 nM. The figure for `CC(=O)N1CCC(c2nc(-c3cncc(C(O)(c4ccc(C5(C)CC5)cc4)C4(C)CN(C)C4)c3)no2)CC1` (centres unmarked) [Example 566] is 209 nM.

On to `CC(C)c1ccc([C@](O)(c2cncc(-c3noc(C4CC(=O)N(Cc5ccco5)C4)n3)c2)C2(C)CN(C)C2)cc1` (some centres unmarked) [Example 354], for which the IC50 stood at 29 nM. With `COCC(=O)NC1(Cc2nc(-c3cncc([C@@](O)(c4ccc(C(C)C)cc4)C4(C)CN(C)C4)c3)no2)CC1` [Example 462], the IC50 was determined as 286 nM. The figure for `CC(C)c1ccc([C@](O)(c2cncc(CCC(C)(C)N3CCN(C)C3=O)c2)C2(C)CN(C)C2)cc1` [Example 640] is 169 nM; for `CC(C)c1ccc([C@](O)(c2cncc(-c3noc(C4CCN(S(=O)(=O)C5CC5)CC4)n3)c2)C2(C)CN(C)C2)cc1` [Example 190, (R)-{5-[5-(1-Cyclopropanesulfonyl-piperidin-4-yl)-[1,2,4]oxadiazol-3-yl]-pyridin-3-yl}-(1,3-dimethyl-azetidin-3-yl)-(4-isopropyl-phenyl)-methanol] it is 38 nM; for `CCC(O)(C#Cc1cncc([C@@](O)(c2ccc(C(C)C)cc2)C2(C)CN(C)C2)c1)c1cccc(OC)n1` (some centres unmarked) [Example 45] it is 32.8 nM. With `CC(C)c1ccc([C@](O)(c2cncc(-c3noc(C4CCN(C(=O)CO)CC4)n3)c2)C2(C)CN(C)C2)cc1` [Example 142], the IC50 amounted to 274 nM. On to `CC(C)c1ccc([C@](O)(c2cncc(-c3noc(C(C)(C)O)n3)c2)C2(C)CN(C)C2)cc1` [Example 121], for which the IC50 is 57.7 nM. On to `CC(C)c1ccc([C@](O)(c2cncc(-c3nc([C@@H]4C[C@H]5CC[C@@H]4O5)no3)c2)C2(C)CN(C)C2)cc1` [Example 92], for which the IC50 worked out at 81.5 nM.

Turning to `CC(C)c1ccc([C@](O)(c2cncc(C3CCN(C(=O)OC(C)(C)C)CC3)c2)C2(C)CN(C)C2)cc1` [Example 312, 5-[(R)-(1,3-Dimethyl-azetidin-3-yl)-hydroxy-(4-isopropyl-phenyl)-methyl]-3′,4′,5′,6′-tetrahydro-2′H-[3,4′]bipyridinyl-1′-carboxylic acid tert-butyl ester], the IC50 was 23.9 nM. For the compound `Cc1noc(C2CCN(c3cncc([C@@](O)(c4ccc(C(C)C)cc4)C4(C)CN(C)C4)c3)C2)n1` (some centres unmarked) [Example 230], the IC50 came out at 36.7 nM. The figure for `CC(=O)N1CCC(C#Cc2cc([C@@](O)(c3ccc(C(C)C)cc3)C3(C)CN(C)C3)cnn2)CC1` [Example 662] is 331 nM. The figure for `CC(C)c1ccc([C@](O)(c2cncc(-c3noc([C@H](O)C4CCCCC4)n3)c2)C2(C)CN(C)C2)cc1` [Example 119] is 20.5 nM; for `CC(C)c1ccc([C@](O)(c2cncc(-c3nc(C(C)(C)CO)no3)c2)C2(C)CN(C)C2)cc1` [Example 98] it is 60 nM. Take `CC(C)c1ccc([C@](O)(c2cncc(N3CC(C)(C)CC3=O)c2)C2(C)CN(C)C2)cc1` [Example 209]: the IC50 worked out at 205 nM. The same measure for `Cc1cc(C(C)(O)CCc2cncc([C@@](O)(c3ccc(C(C)C)cc3)C3(C)CN(C)C3)c2)nn1C` (some centres unmarked) [Example 74]: 154 nM; for `CC(C)c1ccc([C@](O)(c2cncc(-c3noc(CC4(O)CCCCC4)n3)c2)C2(C)CN(C)C2)cc1` [Example 112]: 38.5 nM.

As for `CC(C)c1ccc([C@](O)(c2cncc(C#CC3(O)CCN(C(=O)OC(C)(C)C)C3)c2)C2(C)CN(C)C2)cc1` (some centres unmarked) [Example 406], the IC50 was found to be 37.6 nM. The same measure for `CC(C)c1ccc([C@](O)(c2cnnc(O[C@H]3CCOC3)c2)C2(C)CN(C)C2)cc1` [Example 430, (R)-(1,3-Dimethyl-azetidin-3-yl)-(4-isopropyl-phenyl)-{6-[(S)-(tetrahydro-furan-3-yl)oxy]-pyridazin-4-yl}-methanol]: 209 nM; for `COC(C)(C)Cc1nc(-c2cncc([C@@](O)(c3ccc(C(C)C)cc3)C3(C)CN(C)C3)c2)no1` [Example 136]: 123 nM; for `CC(C)c1ccc([C@](O)(c2cncc(OCCOCc3ccccc3)c2)C2(C)CN(C)C2)cc1` [Example 258]: 15.5 nM. The figure for `CC(C)c1ccc([C@](O)(c2cncc(N(C)CCO)c2)C2(C)CN(C)C2)cc1` [Example 191, 2-({5-[(R)-(1,3-Dimethyl-azetidin-3-yl)-hydroxy-(4-isopropyl-phenyl)-methyl]-pyridin-3-yl}-methyl-amino)-ethanol] is 317 nM; for `CC(=O)N1CCC(c2noc(-c3cncc([C@@](O)(c4ccc(C(C)C)cc4)C4(C)CN(C)C4)c3)n2)CC1` [Example 342] it is 154 nM.
